From US20210379197A1, “DUAL-TARGETING LIPID-POLYMER HYBRID NANOPARTICLES” (IUCF-HYU (INDUSTRY-UNIVERSITY COOPERATION FOUNDATION …, priority 2020, published 2021)

What was measured:
HO1 [1] = assay: Daunorubicin-responsive HO1 upregulation, THP-1 (Western blot); type: cell-based, human; conditions: THP-1, various concentrations of DNR, 24 h (FIG. 9a)
Method: (§1) THP-1 and U937 cells (4×10^5 cells mL^−1) were seeded and cultured in complete medium with various concentrations of DNR for 24 h. The cells were lysed using RIPA buffer and total protein was used for immunodetection by using anti-human HO1 and kactin antibodies (Cell Signaling Technology, Danvers, Mass., USA).

HO1 [2] = assay: Daunorubicin-responsive HO1 upregulation, U937 (Western blot); type: cell-based, human; conditions: U937, various concentrations of DNR, 24 h (FIG. 9a)
Method: as §1

COc1cccc2c1C(=O)c1c(O)c3c(c(O)c1C2=O)C[C@@](O)(C(C)=O)C[C@@H]3O[C@H]1C[C@H](N)[C@H](O)[C@H](C)O1 [DNR, daunorubicin]
HO1 expression (HO1 [1]): overexpressed
HO1 expression (HO1 [2]): overexpressed
